For assay [1], the system named is Trichophyton rubrum (T. rubrum) ATCC10218. The experiment in a line: Antifungal activity against dermatophytes (MIC, WST8). In kind it is cell-based. As to conditions: 80% growth inhibiting concentration; RPMI1640/MOPS, 28° C., 4 days, 1% DMSO. Here is the method:
(§1) Measurement of the antifungal activity against dermatophytes of the compound of the formula (I) contained in the topical liquid agent of the present invention was carried out by the following method. The compound to be evaluated was used by dissolving in dimethyl sulfoxide (DMSO). As a medium for the test, RPMI1640 medium containing 0.165M of 3-morpholinopropanesulfonic acid (MOPS) was used. As fungi to be tested, Trichophyton mentagrophytes (T. mentagrophytes) ATCC18748 or Trichophyton rubrum (T. rubrum) ATCC10218 was used. The testing fungal strain was apportioned to […] with a concentration of 1×10^4 conidia/ml, mixed with a compound to be evaluated on a 96-well half area plate so that the DMSO concentration became 1%, and cultured at a cultivation temperature of 28° C. for 3 days (T. mentagrophytes) or 4 days (T. rubrum). Thereafter, 5 μl of Cell Counting Kit 8 (WST8) was added thereto, and absorbances at 450 nm and 595 nm were measured to use these as background values. Thereafter, these were cultivated at 28° C. for 5 hours (T. mentagrophytes) or overnight (T. rubrum) to cause a color, and absorbances at 450 nm and 595 nm were measured again. A growth inhibiting rate was calculated from the difference to the background values, and a 80% growth inhibiting concentration was made an MIC value […].
In general terms: Formazan colour is commonly taken as a measure of viable cells.

For assay [2], the system named is Trichophyton mentagrophytes (T. mentagrophytes) ATCC18748. The assay is described as above. Type of assay: cell-based. As to conditions: 80% growth inhibiting concentration; RPMI1640/MOPS, 28° C., 3 days, 1% DMSO. As to the method: as §1

Turning to `Cc1cc(C)n(-c2cccc(C)c2O)n1` [compound 51], in assay [1], the “MIC (T. rubrum)” value is recorded as “D (>32 to 64 μg/ml)”.

For `Cc1ccc(O)c(-n2nc(C)cc2C)c1` [compound 49], the “MIC (T. rubrum)” value in assay [1] is “D (>32 to 64 μg/ml)”. Still for that read-out and setting: the same measure for `Cc1cc(C)n(-c2ccc(O)cc2O)n1` [compound 33]: “A (≦2 μg/ml)”. As for `Cc1cc(C)n(-c2cc(Cl)ccc2O)n1` [compound 11], the “MIC (T. rubrum)” value in assay [1] is reported as “D (>32 to 64 μg/ml)”. On to `Cc1nn(-c2ccc(C(N)=O)cc2O)c(C)c1Cl` [compound 42], for which, in assay [1], the “MIC (T. rubrum)” value is reported as “D (>32 to 64 μg/ml)”.

Regarding `Cc1nn(-c2ccc(Br)cc2O)c(C)c1Cl` [compound 55], in assay [1], the “MIC (T. rubrum)” value is given as “A (≦2 μg/ml)”. In assay [2], the “MIC (T. mentagrophytes)” value is on record as “A (≦1 μg/ml)”. Regarding `Cc1cc(C)n(-c2ccc(C(F)(F)F)cc2O)n1` [compound 50], the “MIC (T. rubrum)” value in assay [1] is “B (4 to 16 μg/ml)”. Regarding `Cc1nn(-c2ccccc2O)c(C)c1F` [compound 53], the “MIC (T. rubrum)” value in assay [1] is “B (4 to 16 μg/ml)”.

`COc1ccc(-n2nc(C)cc2C)c(O)c1` [compound 45]: the “MIC (T. rubrum)” value in assay [1] was “A (≦2 μg/ml)”. In addition, the “MIC (T. mentagrophytes)” value in assay [2] was “A (≦1 μg/ml)”. Turning to `Cc1cc(C)n(-c2ccc(C(=O)N(C)C)cc2O)n1` [compound 38], in assay [1], the “MIC (T. rubrum)” value is listed as “B (4 to 16 μg/ml)”. For the compound `Cc1nn(-c2ccc(F)cc2O)c(C)c1C` [compound 18], the “MIC (T. rubrum)” value in assay [1] was “B (4 to 16 μg/ml)”. In the case of `Cc1cc(C)n(-c2ccc(C(=O)O)cc2O)n1` [compound 37], the “MIC (T. rubrum)” value in assay [1] was “B (4 to 16 μg/ml)”. Turning to `COC(=O)c1ccc(-n2nc(C)cc2C)c(O)c1` [compound 35], the “MIC (T. rubrum)” value in assay [1] was “C (16 to 32 μg/ml)”. For `Cc1cc(C)n(-c2c(N)cccc2O)n1` [compound 36], in assay [1], the “MIC (T. rubrum)” value is recorded as “D (>32 to 64 μg/ml)”. Turning to `Cc1cc(C)n(-c2ccccc2O)n1` [compound 1], in assay [1], the “MIC (T. rubrum)” value was “B (4 to 16 μg/ml)”.

With `Cc1cc(C)n(-c2ccc(N)cc2O)n1` [compound 31], the “MIC (T. rubrum)” value in assay [1] is “B (4 to 16 μg/ml)”. For `Cc1cc(C)n(-c2ccc(C(N)=O)cc2O)n1` [compound 39], the “MIC (T. rubrum)” value in assay [1] is “C (16 to 32 μg/ml)”. As to `Cc1cc(C)n(-c2cccc(O)c2O)n1` [compound 15], in assay [1], the “MIC (T. rubrum)” value is “C (16 to 32 μg/ml)”. For `Cc1nn(-c2ccc(Cl)cc2O)c(C)c1C` [compound 30], the “MIC (T. rubrum)” value in assay [1] is recorded as “A (≦2 μg/ml)”. Moreover, the “MIC (T. mentagrophytes)” value in assay [2] is “A (≦1 μg/ml)”. For the compound `Cc1nn(-c2ccc([N+](=O)[O-])cc2O)c(C)c1C` [compound 32], the “MIC (T. rubrum)” value in assay [1] is given as “B (4 to 16 μg/ml)”. With `Cc1nn(-c2cc(O)ccc2O)c(C)c1Cl` [compound 19], in assay [1], the “MIC (T. rubrum)” value was “C (16 to 32 μg/ml)”. Turning to `Cc1nn(-c2ccc(O)cc2O)c(C)c1Cl` [compound 63], the “MIC (T. rubrum)” value in assay [1] was “A (≦2 μg/ml)”. The “MIC (T. mentagrophytes)” value in assay [2] is “A (≦1 μg/ml)”.

Consider `CC(=O)Oc1ccc(-n2nc(C)c(Cl)c2C)c(O)c1` [compound 58], for which the “MIC (T. rubrum)” value in assay [1] is recorded as “A (≦2 μg/ml)”. With `Cc1cc(C)n(-c2ccc(CO)cc2O)n1` [compound 47], the “MIC (T. rubrum)” value in assay [1] is on record as “B (4 to 16 μg/ml)”. Consider `Cc1nn(-c2cc(F)ccc2O)c(C)c1C` [compound 20], for which, in assay [1], the “MIC (T. rubrum)” value was “D (>32 to 64 μg/ml)”. As for `COC(=O)CCc1c(C)nn(-c2ccccc2O)c1C` [compound 23], the “MIC (T. rubrum)” value in assay [1] is recorded as “D (>32 to 64 μg/ml)”.

Turning to `CC(=O)Oc1ccc(-n2nc(C)cc2C)c(O)c1` [compound 57], in assay [1], the “MIC (T. rubrum)” value is given as “B (4 to 16 μg/ml)”. As to `Cc1nn(-c2ccc(Br)cc2O)c(C)c1C` [compound 56], the “MIC (T. rubrum)” value in assay [1] was “A (≦2 μg/ml)”. Also, in assay [2], the “MIC (T. mentagrophytes)” value is “A (≦1 μg/ml)”.

For `Cc1cc(C)n(-c2c(O)cccc2O)n1` [compound 43], in assay [1], the “MIC (T. rubrum)” value is on record as “D (>32 to 64 μg/ml)”. As for `Cc1ccc(-n2nc(C)cc2C)c(O)c1` [compound 44], the “MIC (T. rubrum)” value in assay [1] is “A (≦2 μg/ml)”. The “MIC (T. mentagrophytes)” value in assay [2] is given as “A (≦1 μg/ml)”. In the case of `Cc1nn(-c2ccc(C(N)=O)cc2O)c(C)c1C` [compound 41], the “MIC (T. rubrum)” value in assay [1] was “D (>32 to 64 μg/ml)”. In the case of `CCc1c(C)nn(-c2ccccc2O)c1C` [compound 17], the “MIC (T. rubrum)” value in assay [1] is on record as “A (≦2 μg/ml)”. For the same compound, in assay [2], the “MIC (T. mentagrophytes)” value is “A (≦1 μg/ml)”. Turning to `CNc1ccc(-n2nc(C)cc2C)c(O)c1` [compound 48], the “MIC (T. rubrum)” value in assay [1] is “B (4 to 16 μg/ml)”.

As for `Cc1cc(C)n(-c2ccc(Br)cc2O)n1` [compound 54], in assay [1], the “MIC (T. rubrum)” value was “A (≦2 μg/ml)”. The “MIC (T. mentagrophytes)” value in assay [2] was “A (≦1 μg/ml)”. In the case of `Cc1cc(C)n(-c2c(C)cccc2O)n1` [compound 46], the “MIC (T. rubrum)” value in assay [1] is given as “D (>32 to 64 μg/ml)”. `CCc1cc(CC)n(-c2ccccc2O)n1` [compound 14]: the “MIC (T. rubrum)” value in assay [1] was “B (4 to 16 μg/ml)”. Take `CCc1ccc(-n2nc(C)cc2C)c(O)c1` [compound 52]: the “MIC (T. rubrum)” value in assay [1] is “A (≦2 μg/ml)”. Moreover, the “MIC (T. mentagrophytes)” value in assay [2] was “A (≦1 μg/ml)”. As for `CC(=O)Oc1ccc(-n2nc(C)c(C)c2C)c(O)c1` [compound 59], the “MIC (T. rubrum)” value in assay [1] is listed as “B (4 to 16 μg/ml)”. In the case of `Cc1cc(C(F)(F)F)nn1-c1ccccc1O` [compound 5], the “MIC (T. rubrum)” value in assay [1] was “D (>32 to 64 μg/ml)”. With `CCCCc1c(C)nn(-c2ccccc2O)c1C` [compound 24], the “MIC (T. rubrum)” value in assay [1] was “C (16 to 32 μg/ml)”. Moreover, in assay [2], the “MIC (T. mentagrophytes)” value is “A (≦1 μg/ml)”.

Regarding `Cc1nn(-c2ccc(F)cc2O)c(C)c1Cl` [compound 21], the “MIC (T. rubrum)” value in assay [1] was “B (4 to 16 μg/ml)”. Besides, the “MIC (T. mentagrophytes)” value in assay [2] is listed as “A (≦1 μg/ml)”. For `Cc1nn(-c2ccccc2O)c(C)c1C` [compound 9] the same measures were “A (≦2 μg/ml)” and “A (≦1 μg/ml)”. Regarding `Cc1cc(C)n(-c2ccc([N+](=O)[O-])cc2O)n1` [compound 28], the “MIC (T. rubrum)” value in assay [1] is reported as “C (16 to 32 μg/ml)”. `Cc1nn(-c2ccccc2O)c(C)c1Cl` [compound 13]: in assay [1], the “MIC (T. rubrum)” value was “B (4 to 16 μg/ml)”. In assay [2], the “MIC (T. mentagrophytes)” value was “A (≦1 μg/ml)”. For `Cc1cc(C)n(-c2ccc(Cl)cc2O)n1` [compound 26], in assay [1], the “MIC (T. rubrum)” value is listed as “A (≦2 μg/ml)”. In addition, in assay [2], the “MIC (T. mentagrophytes)” value is “A (≦1 μg/ml)”.

On to `Cc1nn(-c2ccc(C(=O)O)cc2O)c(C)c1C` [compound 40], for which the “MIC (T. rubrum)” value in assay [1] is listed as “D (>32 to 64 μg/ml)”.

Turning to `Cc1nn(-c2ccc(N)cc2O)c(C)c1C` [compound 34], in assay [1], the “MIC (T. rubrum)” value is recorded as “B (4 to 16 μg/ml)”. As to `Cc1cc(C)n(-c2ccc(F)cc2O)n1` [compound 25], in assay [1], the “MIC (T. rubrum)” value is given as “B (4 to 16 μg/ml)”. As to `CCOC(=O)c1c(C)nn(-c2ccccc2O)c1C` [compound 22], in assay [1], the “MIC (T. rubrum)” value is “D (>32 to 64 μg/ml)”.

(Values after patent US20140030209A1, “TOPICAL LIQUID AGENT FOR THE TREATMENT OF DERMATOPHYTOSIS” (MEIJI SEIKA PHARMA CO., LTD., priority 2012, published 2014).)
